Assay: Relaxation dynamics of hyperpolarized [1-13C]pyruvate (build-up time Tb, T1)
Assay type: physicochemical
Text: In addition, the relaxation dynamics of the [1-^13C]pyruvate were also studied.
In addition, relaxation dynamics at earth field and 1.8 T are about the same as a non-fluorinated SABRE catalyst T1=28.9±1.6 s and 66.5±7 s, respectively.
In addition, relaxation dynamics at earth field and 1.8 T are about the same as a non-fluorinated SABRE catalyst T1=9.0±1.9 s and 16.0±1.4 s, respectively.

C[13C](=O)C(=O)O [[1-^13C]pyruvate, Sodium [1-^13C]-pyruvate]
total P13C (bound+free) build-up time Tb (NFBME / deuterated methanol mixture, catalyst of Example 4): 3.0 ± 0.8 s | total P13C (bound+free) build-up time Tb (methanol, catalyst of Example 4, DMSO co-ligand): 6.6 ± 3.0 s
